In general, EC50 refers to the midpoint of the concentration-response curve.

T1 sequence (P43220 24-463): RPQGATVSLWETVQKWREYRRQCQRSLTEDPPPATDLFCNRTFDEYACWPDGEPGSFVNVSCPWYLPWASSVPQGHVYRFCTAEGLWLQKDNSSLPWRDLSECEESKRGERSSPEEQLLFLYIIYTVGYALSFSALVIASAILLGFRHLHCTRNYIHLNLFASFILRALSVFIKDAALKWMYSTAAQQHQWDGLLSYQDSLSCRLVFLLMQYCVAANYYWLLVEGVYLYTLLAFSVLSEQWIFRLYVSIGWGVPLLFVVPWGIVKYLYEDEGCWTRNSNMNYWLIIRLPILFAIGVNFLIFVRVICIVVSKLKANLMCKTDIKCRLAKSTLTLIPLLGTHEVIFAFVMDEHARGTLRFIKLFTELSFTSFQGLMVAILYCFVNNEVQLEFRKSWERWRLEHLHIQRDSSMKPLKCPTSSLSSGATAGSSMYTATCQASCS
T1 sequence (P01275 100-127 partner limits assumed): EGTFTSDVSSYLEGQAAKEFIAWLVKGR

The assay addresses T1, GLP-1R (Homo sapiens, UniProt P43220).
T1 construct: host or cells: CRE-bla CHO-K1
Description: EC20 GLP-1(9-36) PAM cAMP Assay: dose response of compound in the presence of fixed concentration of GLP-1(9-36). The format is cell-based. To be noted: GLP-1R CRE-bla CHO-K1 cells, in presence of fixed concentration of GLP-1(9-36), 30 min at 37° C. As to the method: EC20 GLP-1(9-36) PAM cAMP Assay: Dose Response of Compound in the Presence of Fixed Concentration of GLP-1 (9-36).
GLP-1R CRE-bla CHO-K1 cells cultured in growth medium (DMEM-High glucose, 10% dialyzed FBS, 0.1 mM NEAA, 25 mM Hepes, 100 U/mL penicillin/100 μg/mL streptomycin, 5 μg/mL Blasticidin, 600 μg/mL Hygromycin) were trypsinized and plated in suspension into 384 well white flat bottom plates at 5000 cells/well in 12 μL assay buffer (Hanks Balanced Salt solution, 10 mM Hepes, 0.1% BSA, 10 pH 7.4). A 5× compound dose response curve (12-point) was generated in assay buffer containing 1.5 mM IBMX, 4% DMSO. GLP-1(9-36) was diluted to 4.2 μM in assay buffer containing 1.5 mM IBMX and 4% DMSO. The 5× compound dose response was added (3 μL), followed by 0.5 μL of GLP-1(9-36) and cells were incubated for 30 min at 37° C. Direct detection of cAMP was carried out using DiscoveRx HitHunter cAMP kit according to manufacturer's instructions and luminescence was read using a SpectraMax M5 plate reader. Luminescence was converted to total cAMP using a cAMP standard curve and data was analyzed by non-linear regression to determine the EC50 and Emax.
As to `CC[C@H]1CC[C@H](C2CC=C(c3cnc(-c4ccc(C[C@H](NC(=O)c5ccc(C(C)(C)C)s5)C(=O)NS(C)(=O)=O)cc4)nc3)CC2)CC1` (mixture of isomers) [Compound 109, 5-(tert-butyl)-N—((S)-3-(4-(5-((1RS,1′r,4′RS)-4′-ethyl-[1,1′-bi(cyclohexan)]-3-en-4-yl)pyrimidin-2-yl)phenyl)-1-(methylsulfonamido)-1-oxopropan-2-yl)thiophene-2-carboxamide], the EC50 was less than 500 nM.
On to `CC(C)C1CC=C(c2cnc(-c3ccc(C[C@H](NC(=O)c4ccc(C(C)(C)C)s4)C(=O)N4CC(C(=O)O)C4)cc3)nc2)CC1` (stereo partly drawn) [Compound 40], for which the concentration for a half-maximal effect (EC50) lay within 500 to 2500 nM.
The result for `CCCc1ccc(C(=O)N[C@@H](Cc2ccc(-c3ncc(C4=CCC(C5CCC(CCC)CC5)CC4)cn3)cc2)C(=O)N2CC(C(=O)O)C2)cc1` (stereo partly drawn) [Compound 22] reads less than 500 nM.
Under `CCCC1CCC(C2CC=C(c3cnc(-c4ccc(C[C@H](NC(=O)c5ccc(C(C)(C)C)s5)C(=O)N[C@H](C(=O)O)C(C)C)cc4)nc3)CC2)CC1` (stereo partly drawn) [Compound 75] stands 500 to 2500 nM; under `CC1(C)CCC(C2CC=C(c3cnc(-c4ccc(C[C@H](NC(=O)c5ccc(C(C)(C)C)s5)C(=O)O)cc4)nc3)CC2)CC1` (stereo partly drawn) [Compound 122], 500 to 2500 nM.
In the case of `CCCC1CCC(C2CC=C(c3cnc(-c4ccc(C[C@H](NC(=O)c5cc6cc(OC)ccc6[nH]5)C(=O)N5CC(C(=O)O)C5)cc4)nc3)CC2)CC1` (stereo partly drawn) [Compound 33], the EC50 is 500 to 2500 nM.
The result for `CC[C@H]1CC[C@H](C2CC=C(c3cnc(-c4ccc(C[C@H](NC(=O)c5ccc(C(C)(C)C)s5)C(=O)N5CCC[C@H]5C(=O)O)cc4)nc3)CC2)CC1` (stereo partly drawn) [Compound 105] reads less than 500 nM; that for `CCc1ccc(C(=O)N[C@@H](Cc2ccc(-c3ncc(C4=CCC(C5CCC(C)(C)CC5)CC4)cn3)cc2)C(=O)N2CC(C(=O)O)C2)s1` (stereo partly drawn) [Compound 92], less than 500 nM.
Under `CC(C)(C)c1ccc(C(=O)N[C@@H](Cc2ccc(-c3ncc(C4=CCC([C@H]5CC[C@H](C)CC5)CC4)cn3)cc2)C(=O)O)s1` (mixture of isomers) [Compound 123, (S)-2-(5-(tert-butyl)thiophene-2-carboxamido)-3-(4-(5-((1RS,1′r,4′RS)-4′-methyl-[1,1′-bi(cyclohexan)]-3-en-4-yl)pyrimidin-2-yl)phenyl)propanoic acid] stands less than 500 nM; under `CCCC1CCC(C2CC=C(c3cnc(-c4ccc(C[C@H](NC(=O)c5ccc(C(C)(C)C)s5)C(=O)N[C@@H](CCN)C(=O)O)cc4)nc3)CC2)CC1` (stereo partly drawn) [Compound 72], 2500 to 5000 nM; under `CCC(C)(C)c1ccc(C(=O)N[C@@H](Cc2ccc(-c3ncc(C4=CCC([C@H]5CC[C@H](CC)CC5)CC4)cn3)cc2)C(=O)N2CC(C(=O)O)C2)cc1` (stereo partly drawn) [Compound 101], less than 500 nM.
As for `CCCC1CCC(C2CC=C(c3cnc(-c4ccc(C[C@H](NC(=O)c5ccc(C(C)(C)C)s5)C(=O)N[C@H](C(=O)O)[C@@H](C)O)cc4)nc3)CC2)CC1` (stereo partly drawn) [Compound 74], the EC50 was less than 500 nM.
The result for `CCCC1CCC(C2CC=C(c3cnc(-c4ccc(C[C@H](NC(=O)c5ccc(C(C)(C)C)s5)C(=O)N5CC[C@H](C(=O)O)C5)cc4)nc3)CC2)CC1` (stereo partly drawn) [Compound 7, (3S)-1-((2S)-2-(5-(tert-butyl)thiophene-2-carboxamido)-3-(4-(5-(4′-propyl-[1,1′-bi(cyclohexan)]-3-en-4-yl)pyrimidin-2-yl)phenyl)propanoyl)pyrrolidine-3-carboxylic acid] reads less than 500 nM.
Under `CC(C)(C)c1ccc(C(=O)N[C@@H](Cc2ccc(-c3ncc(C4=CCC([C@H]5CC[C@H](C)CC5)CC4)cn3)cc2)C(=O)NS(C)(=O)=O)s1` (stereo partly drawn) [Compound 115] stands less than 500 nM; under `CCCC1CCC(C2CC=C(c3cnc(-c4ccc(C[C@H](NC(=O)c5ccc(C(C)(C)C)s5)C(=O)N5CC(C(=O)O)C5)cc4)nc3)CC2)CC1` (mixture of isomers) [Compound 6, 1-((2S)-2-(5-(tert-butyl)thiophene-2-carboxamido)-3-(4-(5-(4′-propyl-[1,1′-bi(cyclohexan)]-3-en-4-yl)pyrimidin-2-yl)phenyl)propanoyl)azetidine-3-carboxylic acid], less than 500 nM.
`CC[C@H]1CC[C@H](C2CC=C(c3cnc(-c4ccc(C[C@H](NC(=O)c5ccc(C(C)(C)C)s5)C(=O)N[C@H](C)C(=O)O)cc4)nc3)CC2)CC1` (stereo partly drawn) [Compound 106]: the EC50 was less than 500 nM.
Turning to `CCCC1CCC(C2CC=C(c3cnc(-c4ccc(C[C@H](NC(=O)c5cnc(C(C)(C)C)nc5)C(=O)N5CC(C(=O)O)C5)cc4)nc3)CC2)CC1` (stereo partly drawn) [Compound 15], the EC50 was less than 500 nM.
The result for `CCCCCC1CCC(C2CC=C(c3cnc(-c4ccc(C[C@H](NC(=O)c5ccc(C(C)(C)C)s5)C(=O)N[C@H](C)C(=O)O)cc4)nc3)CC2)CC1` (stereo partly drawn) [Compound 2] reads 5000 to 10000 nM; that for `CCCC1CCC(C2CC=C(c3cnc(-c4ccc(C[C@H](NC(=O)c5ccc(CC)cc5)C(=O)N5CC(C(=O)O)C5)cc4)nc3)CC2)CC1` (stereo partly drawn) [Compound 21], less than 500 nM; that for `CCCC1CCC(C2CCC(c3cnc(-c4ccc(C[C@H](NC(=O)c5ccc(C(C)(C)C)nc5)C(=O)N5CC(C(=O)O)C5)cc4)nc3)CC2)CC1` (stereo partly drawn) [Compound 28], 5000 to 10000 nM.
The result for `CCO[C@H]1CC[C@H](C2CC=C(c3cnc(-c4ccc(C[C@H](NC(=O)c5ccc(C(C)(C)C)s5)C(=O)N5CC(C(=O)O)C5)cc4)nc3)CC2)CC1` (stereo partly drawn) [Compound 84] reads less than 500 nM; that for `CCCC1CCC(C2CC=C(c3cnc(-c4ccc(C[C@H](NC(=O)c5cnn(C(C)(C)C)c5)C(=O)N5CC(C(=O)O)C5)cc4)nc3)CC2)CC1` (stereo partly drawn) [Compound 19], 500 to 2500 nM.
Under `CCCC1CCC(C2CC=C(c3cnc(-c4ccc(C[C@H](NC(=O)c5ccc(C(C)(C)C)s5)C(=O)N[C@@H](CO)C(=O)O)cc4)nc3)CC2)CC1` (stereo partly drawn) [Compound 73] stands less than 500 nM.
With `CCc1ccc(C(=O)N[C@@H](Cc2ccc(-c3ncc(C4=CCC([C@H]5CC[C@H](C)CC5)CC4)cn3)cc2)C(=O)N2CC(C(=O)O)C2)s1` (stereo partly drawn) [Compound 91], the concentration for a half-maximal effect (EC50) was less than 500 nM.
Under `CC[C@H]1CC[C@H](C2CC=C(c3cnc(-c4ccc(C[C@H](NC(=O)c5ccc(C(C)(C)C)s5)C(=O)O)cc4)nc3)CC2)CC1` (stereo partly drawn) [Compound 119] stands 500 to 2500 nM; under `CCCC1CCC(C2CC=C(c3cnc(-c4ccc(C[C@@H](NC(=O)c5ccc(C(C)(C)C)s5)C(=O)N5CC(C(=O)O)C5)cc4)nc3)CC2)CC1` (stereo partly drawn) [Compound 124], 500 to 2500 nM; under `C[C@@H](NC(=O)[C@H](Cc1ccc(-c2ncc(C3=CCC(C)(C)CC3)cn2)cc1)NC(=O)c1ccc(C(C)(C)C)s1)C(=O)O` [Compound 57], 500 to 2500 nM.
The result for `CC[C@H]1CC[C@H](C2CC=C(c3cnc(-c4ccc(C[C@H](NC(=O)c5ccc(CC(C)C)cc5)C(=O)N5CC(C(=O)O)C5)cc4)nc3)CC2)CC1` (stereo partly drawn) [Compound 102] reads 500 to 2500 nM.
Under `C[C@@H](NC(=O)[C@H](Cc1ccc(-c2ncc(C3=CCCC(NC(=O)OC(C)(C)C)C3)cn2)cc1)NC(=O)c1ccc(C(C)(C)C)s1)C(=O)O` (stereo partly drawn) [Compound 69] stands 2500 to 5000 nM.
As for `CCCC1CCC(C2CCC(c3cnc(-c4ccc(C[C@H](NC(=O)c5ccc(C(C)C)cc5)C(=O)N5CC(C(=O)O)C5)cc4)nc3)CC2)CC1` (stereo partly drawn) [Compound 12], the concentration giving a half-maximal response (EC50) was in the range of 2500 to 5000 nM.
Under `CCCC1CCC(C2CC=C(c3cnc(-c4ccc(C[C@H](NC(=O)c5ccc(C6CC6)s5)C(=O)N5CC(C(=O)O)C5)cc4)nc3)CC2)CC1` (stereo partly drawn) [Compound 34] stands less than 500 nM.
The result for `CCCC1CCC(C2CC=C(c3cnc(-c4ccc(C[C@H](NC(=O)c5ccc(C(C)=O)cc5)C(=O)N5CC(C(=O)O)C5)cc4)nc3)CC2)CC1` (stereo partly drawn) [Compound 30] reads 500 to 2500 nM; that for `CC(C)(C)c1ccc(C(=O)N[C@@H](Cc2ccc(-c3ncc(C4CCC(C(C)(C)C)CC4)cn3)cc2)C(=O)N2CC(C(=O)O)C2)s1` (stereo partly drawn) [Compound 41], 5000 to 10000 nM; that for `C[C@@H](NC(=O)[C@H](Cc1ccc(-c2ncc(C3=CCC(C)(C)C=C3)cn2)cc1)NC(=O)c1ccc(C(C)(C)C)s1)C(=O)O` [Compound 60], 500 to 2500 nM.
The result for `CCc1ccc(C(=O)N[C@@H](Cc2ccc(-c3ncc(C4=CCC([C@H]5CC[C@H](CC)CC5)CC4)cn3)cc2)C(=O)N2CC(C(=O)O)C2)s1` (stereo partly drawn) [Compound 93] reads less than 500 nM; that for `C[C@@H](NC(=O)[C@H](Cc1ccc(-c2ncc(C3=CCC(C(F)(F)F)CC3)cn2)cc1)NC(=O)c1ccc(C(C)(C)C)s1)C(=O)O` (stereo partly drawn) [Compound 65], 500 to 2500 nM.
As for `CC(C)(C)c1ccc(C(=O)N[C@@H](Cc2ccc(-c3ncc(C4=CCC(c5ccccc5)CC4)cn3)cc2)C(=O)N2CC(C(=O)O)C2)s1` (stereo partly drawn) [Compound 11], the EC50 is less than 500 nM.
The result for `C[C@@H](NC(=O)[C@H](Cc1ccc(-c2ncc(C3=CCCC3)cn2)cc1)NC(=O)c1ccc(C(C)(C)C)s1)C(=O)O` [Compound 63] reads 500 to 2500 nM; that for `CCCC1CCC(C2CC=C(c3cnc(-c4ccc(C[C@H](NC(=O)c5ccc(CC)s5)C(=O)N5CC(C(=O)O)C5)cc4)nc3)CC2)CC1` (stereo partly drawn) [Compound 31, 1-((S)-2-(5-ethylthiophene-2-carboxamido)-3-(4-(5-((1RS,1′s,4′RS)-4′-propyl-[1,1′-bi(cyclohexan)]-3-en-4-yl)pyrimidin-2-yl)phenyl)propanoyl)azetidine-3-carboxylic acid], less than 500 nM.

Source of the values: patent US9474755B2, “GLP-1 receptor modulators” (Receptos, Inc., priority 2014, dated 2016).
